ChEMBL document CHEMBL1201862, “PubChem BioAssay data set” (2004)
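How tested: cells in 96-well plates exposed to compound for 48 hours at five concentrations. At the GI50, growth is halved.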 Calls of active or inactive are those of the source. No stated cut-off is given here; in the data, active = GI50 up to about 1.1 µM and inactive = higher.

Legend:
Assay in all cases: DTP human tumour cell line panel, 48 h
SNB-19 = system: SNB-19
LOX IMVI = system: LOX IMVI
OVCAR-8 = system: OVCAR-8
OVCAR-3 = system: OVCAR-3
K562 = system: K562
OVCAR-5 = system: OVCAR-5
EKVX = system: EKVX
MOLT-4 = system: MOLT-4
SF-268 = system: SF-268
RXF 393 = system: RXF 393
HT-29 = system: HT-29
A549 = system: A549
PC-3 = system: PC-3
NCI-H460 = system: NCI-H460
NCI-H23 = system: NCI-H23
UACC-62 = system: UACC-62
NCI-H522 = system: NCI-H522
SNB-75 = system: SNB-75
Hs-578T = system: Hs-578T
HOP-92 = system: HOP-92
SF-539 = system: SF-539
BT-549 = system: BT-549
UACC-257 = system: UACC-257
KM12 = system: KM12
DU-145 = system: DU-145
M14 = system: M14
IGROV-1 = system: IGROV-1
MCF7 = system: MCF7
OVCAR-4 = system: OVCAR-4
NCI-H226 = system: NCI-H226
CCRF-CEM = system: CCRF-CEM
U-251 = system: U-251
ACHN = system: ACHN
786-0 = system: 786-0
UO-31 = system: UO-31
SF-295 = system: SF-295
SK-MEL-5 = system: SK-MEL-5
TK-10 = system: TK-10
HL-60 = system: HL-60
MDA-MB-435 = system: MDA-MB-435
SW-620 = system: SW-620
SR = system: SR
COLO 205 = system: COLO 205
NCI/ADR-RES = system: NCI/ADR-RES
MDA-MB-231 = system: MDA-MB-231
SK-MEL-28 = system: SK-MEL-28
SN12C = system: SN12C
SK-MEL-2 = system: SK-MEL-2
HCC 2998 = system: HCC 2998
T47D = system: T47D
SK-OV-3 = system: SK-OV-3
A498 = system: A498
HCT-15 = system: HCT-15
CAKI-1 = system: CAKI-1
HOP-62 = system: HOP-62
RPMI-8226 = system: RPMI-8226
Malme-3M = system: Malme-3M
HCT-116 = system: HCT-116

## COc1cc(C2C(Cl)C(=O)N2NC(=O)c2ccccc2O)cc(OC)c1OC (stereo unspecified)
SNB-19
  GI50: 7.05 µM (inactive)
LOX IMVI
  GI50: 3.7 µM (inactive)
OVCAR-8
  GI50: 2.47 µM (inactive)
OVCAR-3
  GI50: 4.72 µM (inactive)
K562
  GI50: 2.95 µM (inactive)
OVCAR-5
  GI50: 5.96 µM (inactive)
EKVX
  GI50: 5.27 µM (inactive)
MOLT-4
  GI50: 3.01 µM (inactive)
SF-268
  GI50: 5.73 µM (inactive)
RXF 393
  GI50: > 10 µM (inactive)
HT-29
  GI50: 2.75 µM (inactive)
A549
  GI50: 4.27 µM (inactive)
PC-3
  GI50: 3.52 µM (inactive)
NCI-H460
  GI50: 2.64 µM (inactive)
NCI-H23
  GI50: 2.4 µM (inactive)
UACC-62
  GI50: 2.89 µM (inactive)
NCI-H522
  GI50: 2.87 µM (inactive)
SNB-75
  GI50: > 10 µM (inactive)
Hs-578T
  GI50: 8.38 µM (inactive)
HOP-92
  GI50: 5.66 µM (inactive)
SF-539
  GI50: 3.5 µM (inactive)
BT-549
  GI50: > 10 µM (inactive)
UACC-257
  GI50: 1.89 µM (inactive)
KM12
  GI50: 5.58 µM (inactive)
DU-145
  GI50: 0.284 µM (active)
M14
  GI50: 6.31 µM (inactive)
IGROV-1
  GI50: 0.188 µM (active)
MCF7
  GI50: 2.9 µM (inactive)
OVCAR-4
  GI50: 3.99 µM (inactive)
NCI-H226
  GI50: 4.49 µM (inactive)
CCRF-CEM
  GI50: 1.65 µM (inactive)
U-251
  GI50: 3.54 µM (inactive)
ACHN
  GI50: 3.79 µM (inactive)
786-0
  GI50: > 10 µM (inactive)
UO-31
  GI50: 7.76 µM (inactive)
SF-295
  GI50: 1.8 µM (inactive)
SK-MEL-5
  GI50: 5.07 µM (inactive)
TK-10
  GI50: 8.51 µM (inactive)
HL-60
  GI50: 0.733 µM (active)
MDA-MB-435
  GI50: 6.03 µM (inactive)
SW-620
  GI50: 2.63 µM (inactive)
SR
  GI50: 2.98 µM (inactive)

## Cc1cn2c(/C=N/NC(=N)N)c(-c3cc([N+](=O)[O-])c(Cl)cc3Cl)nc2s1
SNB-19
  GI50: 1.87 µM (inactive)
OVCAR-8
  GI50: 2.63 µM (inactive)
COLO 205
  GI50: 0.55 µM (active)
HT-29
  GI50: 1.13 µM (inactive)
A549
  GI50: 4.06 µM (inactive)
PC-3
  GI50: 2.34 µM (inactive)
NCI-H460
  GI50: 2.29 µM (inactive)
NCI/ADR-RES
  GI50: > 100 µM (inactive)
MDA-MB-231
  GI50: 2.4 µM (inactive)
UACC-62
  GI50: 1.98 µM (inactive)
NCI-H522
  GI50: 1.47 µM (inactive)
SK-MEL-28
  GI50: 2.22 µM (inactive)
HOP-92
  GI50: 3.32 µM (inactive)
SF-539
  GI50: 2.52 µM (inactive)
BT-549
  GI50: 2.51 µM (inactive)
UACC-257
  GI50: 2.24 µM (inactive)
KM12
  GI50: 0.455 µM (active)
IGROV-1
  GI50: 1.8 µM (inactive)
MCF7
  GI50: 0.49 µM (active)
SN12C
  GI50: 2.24 µM (inactive)
OVCAR-4
  GI50: 1.91 µM (inactive)
UO-31
  GI50: 1.83 µM (inactive)
SF-295
  GI50: 2.08 µM (inactive)
SK-MEL-5
  GI50: 2.77 µM (inactive)
TK-10
  GI50: 2.3 µM (inactive)
HL-60
  GI50: 1.61 µM (inactive)
SK-MEL-2
  GI50: 2.35 µM (inactive)

## Fc1ccccc1/N=c1\oc2ccc(Br)cc2cc1-c1nc2ccccc2[nH]1
SNB-19
  GI50: 4.26 µM (inactive)
LOX IMVI
  GI50: 13.2 µM (inactive)
OVCAR-8
  GI50: 9.23 µM (inactive)
OVCAR-3
  GI50: 6.15 µM (inactive)
K562
  GI50: > 25.6 µM (inactive)
COLO 205
  GI50: 35.6 µM (inactive)
HCC 2998
  GI50: 10.4 µM (inactive)
T47D
  GI50: 38.3 µM (inactive)
SK-OV-3
  GI50: 10.7 µM (inactive)
OVCAR-5
  GI50: 34.8 µM (inactive)
EKVX
  GI50: 9.29 µM (inactive)
A498
  GI50: 2.58 µM (inactive)
MOLT-4
  GI50: > 30.8 µM (inactive)
SF-268
  GI50: 0.522 µM (active)
RXF 393
  GI50: 7.64 µM (inactive)
A549
  GI50: 7.01 µM (inactive)
PC-3
  GI50: 7.4 µM (inactive)
NCI-H460
  GI50: 15 µM (inactive)
NCI-H23
  GI50: 7.33 µM (inactive)
NCI/ADR-RES
  GI50: 10 µM (inactive)
MDA-MB-231
  GI50: 6.7 µM (inactive)
UACC-62
  GI50: 12.8 µM (inactive)
NCI-H522
  GI50: 1.75 µM (inactive)
SNB-75
  GI50: 1.84 µM (inactive)
Hs-578T
  GI50: 0.485 µM (active)
HCT-15
  GI50: 30.1 µM
CAKI-1
  GI50: 9.55 µM (inactive)
SK-MEL-28
  GI50: 14.5 µM (inactive)
HOP-92
  GI50: 18 µM (inactive)
SF-539
  GI50: 1.87 µM (inactive)
BT-549
  GI50: 7.93 µM (inactive)
UACC-257
  GI50: > 19.8 µM (inactive)
KM12
  GI50: > 20.7 µM (inactive)
HOP-62
  GI50: 3.65 µM (inactive)
RPMI-8226
  GI50: 28 µM (inactive)
DU-145
  GI50: 17.1 µM (inactive)
M14
  GI50: 11.2 µM (inactive)
IGROV-1
  GI50: 8.95 µM (inactive)
MCF7
  GI50: 14.8 µM (inactive)
SN12C
  GI50: 16.6 µM (inactive)
OVCAR-4
  GI50: 5.96 µM (inactive)
NCI-H226
  GI50: 4.26 µM (inactive)
CCRF-CEM
  GI50: > 100 µM (inactive)
U-251
  GI50: 6 µM (inactive)
ACHN
  GI50: 6.9 µM (inactive)
786-0
  GI50: 3.18 µM (inactive)
UO-31
  GI50: 8.04 µM (inactive)
SF-295
  GI50: 5.48 µM (inactive)
SK-MEL-5
  GI50: 8.49 µM (inactive)
TK-10
  GI50: 6.59 µM (inactive)
HL-60
  GI50: > 100 µM (inactive)
Malme-3M
  GI50: 2.32 µM (inactive)
SK-MEL-2
  GI50: 8.18 µM (inactive)
MDA-MB-435
  GI50: 23.1 µM (inactive)
SW-620
  GI50: > 21.9 µM (inactive)
HCT-116
  GI50: 8.61 µM (inactive)
SR
  GI50: > 25.6 µM (inactive)
